These results are taken from US20250302862A1, “SMALL RNA DRUG FOR INHIBITING ACTIVITY OF CANCER CELLS” (Institute of Basic Medical Sciences Chinese Academy of …, priority 2022, published 2025).

Data set [1] relates to H460 cells. The experiment in a line: Cell migration (scratch assay, Transwell). Type of data set: cell-based, human. Conditions: 100 nmol/L, 48 h. The protocol: Method 1: H460 cells with a cell density of more than 90% in 10 cm^2 dishes were plated in 12-well plates using serum-free medium according to the cell growth rate. After 12 h, 200 uL pipette tips were used to draw straight lines in the wells. The floating cells were washed away and transfection was performed, and the groups (three wells per group, two lines per well) were divided as follows: • blank control group: 200 uL of opti-MEM per well • negative control group (NC group) and experimental group: • A. 100 uL of opti-MEM and 2 uL of iMax were mixed well for 5 min • B. 100 uL of opti-MEM and 5 uL of small RNA (final concentration 100 nmol/L) were mixed well • C. solution A and solution B were mixed well and let stand for 15 min, and then was added to each well at a 200 uL system • Note: 100 uL of nuclease-free water was added to 2 nmol of small RNA dry powder for dissolution at a storage concentration of 20 umol/L
After 48 h, the supernatant was discarded and images were taken under a microscope.
Method 2: H460 cells with a cell density of more than 90% in 10 cm^2 dishes were digested and then resuspended with 1 mL of serum-free medium and counted. 100,000 cells (100 uL) were plated in the upper chamber, and complete medium with 10% FBS was added to the lower chamber of each Transwell (migration chamber). […]
(§1) 1) H460 cells with a cell density of more than 90% in 10 cm^2 dishes were digested and then resuspended with 1 mL of serum-free medium and counted. […]
as §1

The test system of data set [2] is H460 cells. As to the kind of experiment: Cell invasion (Matrigel Transwell). Type of data set: cell-based, human. Particulars: 100 nmol/L, 48 h. The protocol: Matrigel (basement membrane matrix) was thawed on crushed ice one night before and diluted with serum-free medium to a final concentration of 200-300 ug/mL. 100 uL of the diluted Matrigel was added to each upper chamber, let stand at 37° C. for 30 min, and the supernatant was aspirated. H460 cells with a cell density of more than 90% in 10 cm^2 dishes were digested and resuspended with 1 mL of serum-free medium and counted. 100,000 cells (100 uL) were plated in the upper chamber, and complete medium with 10% FBS was added to the lower chamber of each chamber. Transfection was performed after 12 h, and the groups (3 wells per group) were divided as follows: • blank control group: 20 uL of opti-MEM • negative control group (NC group) and experimental group: • A. 10 uL of opti-MEM and 0.2 uL of iMax were mixed well for 5 min • B. 10 uL of opti-MEM and 0.5 uL of small RNA (final concentration 100 nmol/L) were mixed well • C. solution A and solution B were mixed well and let stand for 15 min, and then was added to each well at a 20 uL system • Note: 100 uL of nuclease-free water was added to 2 nmol of small RNA dry powder for dissolution at a storage concentration of 20 umol/L
After 48 h, the medium in upper and lower chambers was discarded. The cells were fixed with paraformaldehyde at room temperature for 15 min, stained with 0.1% crystal violet at room temperature for 15 min, and rinsed with PBS. The cells in the upper chamber were gently wiped off with cotton swabs, and the chamber was dried. A Leica inverted microscope DMi8 was turned on, the 5× objective lens was selected, the parameters were adjusted and the white balance was performed following the manual. Each chamber was photographed, followed by counting and statistic processing.
1) Matrigel basement membrane matrix was thawed on crushed ice one night before and diluted with serum-free medium to a final concentration of 200-300 ug/mL. […] H460 cells with a cell density of more than 90% in 10 cm^2 dishes were digested and resuspended with 1 mL of serum-free medium and counted. […]

For the substance “HQi-sRNA-2: small RNA derived from Scutellaria baicalensis, sequence AUGGUUCGAUUCCGGAGAGGG (listed as RNA, chemistry not given here)”, the cell migration result with H460 cells [1] is “inhibits”. For the same substance, the cell invasion result with H460 cells [2] is on record as “inhibits”.

Take “MDM-sRNA-39: small RNA derived from Maytenus hookeri, sequence GGGAUUGUAGUUCAAUUGGUCAGAGCACC (listed as RNA, chemistry not given here)”: the cell migration entry with H460 cells [1] is listed as “inhibits”. The cell invasion result with H460 cells [2] is recorded as “inhibits”.

Regarding “MDM-sRNA-163: small RNA derived from Maytenus hookeri, sequence UGACUCUAGUCCGACUUUGUGAAAUGACU (listed as RNA, chemistry not given here)”, the cell migration result in the data set on H460 cells [1] was “inhibits”. The cell invasion entry in the data set with H460 cells [2] is given as “inhibits”.
